{"source": "patent US20080314115A1", "about": "“Compliance Apparatus” (Zenics Limited, priority 2005, published 2008)", "origin": "cited, not measured here", "details": "after disulfiram dose"}
{"smiles": "S=C=S", "note": "[carbon disulphide]", "values": [{"measurement": "breath elimination half-life", "result": 13.3, "unit": "h"}]}
